Measured values published in publication PMC6130628, “Some pharmacokinetic parameters of salvianolic acid A following single-dose oral administration to rats” (Pharmaceutical Biology, 2018).
Where two headings read alike, the source gives them in different places.

Columns and labels:
[1] = Pharmacokinetic study in vivo (plasma, LC–MS, noncompartmental); settings: both sexes, Sprague-Dawley, rat, rats; for MRT last: read-out: MRT0–t; for AUC(0-t) / Cmax: single dose
Protocol: Ninety-six healthy, intact Sprague-Dawley rats (male/female, 1/1, 185-215 g, Certificate No. SCXK 2006-0009) were purchased from Vital River Laboratories (Beijing, China). The rats were maintained in air-conditioned animal quarters with alternating 12 h light/dark cycles at a room temperature of 22 ± 2 °C and a relative humidity of 50 ± 10%. The rodents were given a commercial rat chow and water ad libitum. The experiment started after acclimation to the facilities for 7 days. All animal studies were conducted in accordance with “Principles of laboratory animal care” (NIH publication No. 85-23, revised 1985) and under protocols approved by the Ethic Committee of Laboratory Animals of the Affiliated Hospital of Qingdao University ([…] 2013-2-4-01). Rats were fasted overnight (∼12 h) and had free access to water throughout the experimental period. […] The doses applied in this study were determined according to, on the one hand, the doses applied in pharmacodynamic experiments in rats (Yang et al. [2011a]; Yang et al. [2011b]; Yu et al. [2012]; Hou et al. [2017]), and on the other hand, the results of our preliminary absorption experiments. The blood samples were taken crossly from the orbital sinus into tubes pretreated with heparin before dosing and subsequently at 0.083, 0.167, 0.25, 0.333, 0.5, 0.75, 1, 2, 4, 8, 12 and 24 h postdosing. After blood sampling, the samples were centrifuged at 4,500 rpm for 15 min at 4 °C to obtain 200 μL of plasma samples. These samples were immediately frozen and maintained at -80 °C until analysis. Plasma samples were thawed at room temperature before processing. To a 200 μL aliquot of plasma sample, 10 μL of VC (10 mg/mL) and 10 μL of the IS spiking solution (butyl paraben, 1 μg/mL) were added. Then, the mixture was acidified with 100 μL of 1 mol/L HCl and vortex-mixed with 800 μL of EtOAc for 3 min. […] EtOAc (800 μL) was added again to the lower aqueous phase and the extraction process was repeated. […] The residue was reconstituted in 100 μL of MeOH-H2O (50:50, v/v, containing VC 100 μg/mL). After centrifugation at 13,400 rpm for 5 min, 20 μL of the supernatant was injected to the LC-MS system. DAS pharmacokinetic software Data Analysis System Version 3.0 (Bontz Inc., Beijing, China) was used for pharmacokinetic analysis of Sal A concentrations. The noncompartmental model was applied for analysis of the data following intravenous and oral administration of Sal A. The peak plasma concentration (Cmax), the corresponding time (Tmax), the mean residence time (MRT) and the area under the concentration-time curve (AUC) could all be obtained. After intravenous and oral administration of Sal A to rats, plasma concentration was determined by LC-MS. The data obtained from each group was averaged. […] The oral bioavailability (F) was calculated by using AUCoral/dose divided by AUCiv/dose.

[2] = Bidirectional transport experiments in the Caco-2 cell culture model; type: in vitro ADME; settings: human; for Papp A→B at 180 min: read-out: Papp Apical → basolateral; for Papp B→A at 180 min: read-out: Papp Basolateral → apical
Protocol: Caco-2 cells (passage number 34–36, American Type Culture Collection, Manassas, VA) were cultured at 37 °C in an atmosphere of 5% CO2 and 90% relative humidity in Dulbecco’s modified Eagle’s medium supplemented with 10% fetal bovine serum, 1% penicillin–streptomycin, 1% HEPES, 1% sodium pyruvate and 1% minimal essential medium nonessential amino acids. After harvesting at 90% confluence, the cells were seeded on to 0.4 μm polycarbonate membrane transwell inserts (12 mm diameter) at a density of 1.5 × 10^5 cells/cm^2. The culture media was changed every other day during the first 7 days after seeding and once a day thereafter. Cell monolayers were ready for experiments from 20 to 24 days postseeding.
Experiments in triplicate were performed in HBSS (pH =7.4).To ensure the stability of Sal A in HBSS, VC was applied in this study as stabilizer. The monolayers were washed three times with prewarmed HBSS (37 °C) before use. The integrity of the Caco-2 monolayers was monitored by measuring the transepithelial electrical resistance, and only monolayers with values ≥400 Ω/cm^2 were used. The monolayers were incubated with HBSS at 37 °C for 30 min, and then the incubation medium was aspirated. Afterwards, bidirectional transport experiments were conducted. Sal A solution of appropriate concentrations in HBSS (containing VC 1 0^−4 mol/L) were loaded to the donor compartments and the blank HBSS (containing VC 1 0^−4 mol/L) was added to the receiver compartments. Seven sequential samples (50 μL) were collected at different times (0, 30, 60, 90, 120, 150, 180 min) from the receiver side. The same volume of receiver medium was replaced after each sampling. The collected samples were added into tubes with 40 μL MeOH–H2O (50:50, v/v, containing VC 100 μg/mL). Then, 10 μL of the IS spiking solution (butyl paraben, 1 μg/mL) was added. After centrifugation at 13,400 rpm for 5 min, 20 μL of the supernatant was injected to the LC–MS system.
Influence of the stabilizer on the transport of Sal A has also been tested under the condition of different concentrations of VC. The samples were collected, treated and analyzed according to the same procedure.
The apparent permeability coefficient (Papp) was calculated according to the following equation: Papp=(ΔQ/Δt)/(A×C0) where ΔQ/Δt is the linear appearance rate of the tested compound in the receiver compartments, A is the surface area of the cell monolayer and C0 is the initial concentration of the tested compound in the donor side.

[3] = cited from earlier work
[4] = Caco-2, pH 7.4, Sal A 10^–4/3 mol/L, HBSS pH 7.4, VC 10^−4 mol/L
[5] = Caco-2, pH 7.4, Sal A 10^–4/9 mol/L, HBSS pH 7.4, VC 10^–4 mol/L
[6] = Caco-2, pH 7.4, Sal A 10^–4/9 mol/L, VC 10^–3/3 mol/L
[7] = Caco-2, pH 7.4, Sal A 10^–4/9 mol/L, VC 10^–3 mol/L
[8] = Caco-2, pH 7.4, Sal A 10^–4/27 mol/L, HBSS pH 7.4, VC 10^−4 mol/L

- MRT last ([1]; iv, 50 ug/kg, i.v. 50 µg/kg): 0.62 h
- Tmax ([1]; iv, 50 ug/kg, i.v. 50 µg/kg, read-out: Tmax): 0.08 h
- half-life ([1]; iv, 50 ug/kg, i.v. 50 µg/kg, read-out: t1/2 (converted)): 6.16 h
- AUC(0-t) ([1]; iv, 50 ug/kg, i.v. 50 µg/kg): 205 ng·h/mL
- Cmax ([1]; iv, 50 ug/kg, i.v. 50 µg/kg): 579 ng/mL
- bioavailability ([1]; po, 5 mg/kg, oral 5 mg/kg vs i.v. 50 µg/kg, AUCoral/dose divided by AUCiv/dose, read-out: F (oral bioavailability)): 0.52%
- Tmax ([1]; po, 5 mg/kg, oral 5 mg/kg, read-out: Tmax): 1 h
- half-life ([1]; po, 5 mg/kg, oral 5 mg/kg, read-out: t1/2 (converted)): 1.96 h
- bioavailability ([1]; po, 10 mg/kg, oral 10 mg/kg vs i.v. 50 µg/kg, read-out: F (oral bioavailability)): 0.41%
- Tmax ([1]; po, 10 mg/kg, oral 10 mg/kg, read-out: Tmax): 1 h
- half-life ([1]; po, 10 mg/kg, oral 10 mg/kg, read-out: t1/2 (converted)): 1.72 h
- bioavailability ([1]; po, 20 mg/kg, oral 20 mg/kg vs i.v. 50 µg/kg, read-out: F (oral bioavailability)): 0.39%
- Tmax ([1]; po, 20 mg/kg, oral 20 mg/kg, read-out: Tmax): 1 h
- half-life ([1]; po, 20 mg/kg, oral 20 mg/kg, read-out: t1/2 (converted)): 1.79 h
- bioavailability ([1]; po, 20 mg/kg, oral in pure form, over the doses 5, 10 and 20 mg/kg, read-out: absolute (oral) bioavailability): 0.39 to 0.52%
- half-life ([1]; po, 20 mg/kg, oral, over the doses 5, 10 and 20 mg/kg, read-out: half-life period (t1/2)): 1.72 to 1.96 h
- Tmax ([1]; po, oral, 5–20 mg/kg, read-out: time to peak concentration in plasma (Tmax)): ≤ 1 h
- MRT last ([1]; oral 5 mg/kg): 2.91 h
- AUC(0-t) ([1]; oral 5 mg/kg): 106 ng·h/mL
- Cmax ([1]; oral 5 mg/kg): 31.5 ng/mL
- MRT last ([1]; oral 10 mg/kg): 2.33 h
- AUC(0-t) ([1]; oral 10 mg/kg): 167 ng·h/mL
- Cmax ([1]; oral 10 mg/kg): 57.4 ng/mL
- MRT last ([1]; oral 20 mg/kg): 2.36 h
- AUC(0-t) ([1]; oral 20 mg/kg): 317 ng·h/mL
- Cmax ([1]; oral 20 mg/kg): 112 ng/mL
- Papp A→B at 180 min [2, 4]: 0.156 ± 0.0412 ×10⁻⁶ cm/s
- Papp B→A at 180 min [2, 4]: 0.508 ± 0.0118 ×10⁻⁶ cm/s
- Papp A→B at 180 min [2, 5]: 0.152 ± 0.0055 ×10⁻⁶ cm/s
- Papp B→A at 180 min [2, 5]: 0.605 ± 0.0175 ×10⁻⁶ cm/s
- Papp A→B at 180 min [2, 6]: 0.155 ± 0.003 ×10⁻⁶ cm/s
- Papp B→A at 180 min [2, 6]: 0.507 ± 0.087 ×10⁻⁶ cm/s
- Papp A→B at 180 min [2, 7]: 0.153 ± 0.0028 ×10⁻⁶ cm/s
- Papp B→A at 180 min [2, 7]: 0.478 ± 0.0453 ×10⁻⁶ cm/s
- Papp A→B at 180 min [2, 8]: 0.641 ± 0.0576 ×10⁻⁶ cm/s
- Papp B→A at 180 min [2, 8]: 0.987 ± 0.121 ×10⁻⁶ cm/s
- efflux ratio at 180 min ([2]; pH 7.4, Caco-2 monolayer, read-out: ratio of PB–A to PA–B (Papp basolateral to apical / apical to basolateral)): ~3
Compound: O=C(/C=C/c1ccc(O)c(O)c1/C=C/c1ccc(O)c(O)c1)O[C@H](Cc1ccc(O)c(O)c1)C(=O)O [Sal A, Salvianolic acid A]
- stability in intestinal alkaline environment ([3]; alkaline environment, ref Liu et al. [2011]): instability
- stability in distilled water ([3]; distilled water, room temperature, ref Xu et al. [2008]): instable
